Test results as given in patent publication US20240376504A1, “ENZYMATIC SYNTHESIS OF MYCOSPORINE-LIKE AMINO ACIDS” (University of Florida Research Foundation, Incorporated, priority 2021, published 2024).

Assays:
[1] = test system: recombinant His6-tagged MysD; assay: MysD reaction, relative activity of amino acid substrates (MG consumption by HPLC); assay type: biochemical, Nostoc linkia NIES-25; conditions: 0.25 μM MysD; L-Thr reaction (8 min) set as 100%; from concentrations of disubstituted MAAs produced
Protocol: The current and previous heterologous expression studies supported the function of MysD in the biosynthesis of disubstituted MAAs (FIG. 3).^29,35 To further characterize its catalytic properties, recombinant His6-tagged MysD of N. linkia NIES-25 was prepared from E. coli after a single affinity purification (FIG. 21). The enzyme reaction was performed with MysD (0.5 μM), MG (50 μM), and L-Thr (1 mM) in the presence of ATP (1 mM) and Mg^2+ (10 mM) at room temperature for 2 h. […] No product was formed in the control reactions without enzyme or ATP (FIG. 5A). The requirement of ATP for the MysD reaction supports its prediction as the D-Ala-D-Ala ligase-like enzyme of the ATP grasp superfamily.^29 The optimal temperature and pH of its reaction were determined at 37° C. and pH=8.5 (FIG. 22). Under these optimal reaction conditions, all 20 natural amino acids were screened (5 mM) along with MG (50 μM) in the MysD reaction. […] LC-HRMS and MS/MS analysis indicated the formation of their corresponding disubstituted MAAs, MG-Ala, MG-Arg (observed [M+H]^+: 402.1977; calculated [M+H]^+: 402.1983), MG-Cys (observed [M+H]^+: 349.1059; calculated [M+H]^+: 349.1064), mycosporine-2-Gly (observed [M+H]^+: 303.1182; calculated [M+H]^+: 303.1187), shinorine, and porphyra-334 (FIGS. 24, 25, and 26). L-Ser and L-Thr led to the complete consumption of MG in the MysD reactions after 3 h, followed by L-Cys. […] Nonetheless, the result of this biochemical study well agreed with the production of porphyra-334 along with small amounts of shinorine and MG-Ala in the above heterologous expression study (FIG. 3C). To further understand MysD's substrate preference, the enzyme concentration was lowered to 0.25 μM. […] The consumed MG level in this reaction was set as 100% to normalize its level in the five other reactions, which was determined from the concentrations of produced disubstituted MAAs in the reactions (FIG. 5C). […] Together, the results of these biochemical studies highlight the broad substrate scope of MysD and its strong preference toward L-Thr in the MAA biosynthesis.
MysD Reaction. […] The quality of MG was calculated based on its reported extinction coefficient (28,100 M^−1 cm^−1). […] The reactions were terminated and then analyzed in the HPLC and/or LC-MS analysis. […] First, the reactions were performed with 0.25 μM MysD for 8 min, which led to no more than 50% consumption of MG into porphyra-334 with the best substrate L-Thr and into shinorine with L-Ser. For the other four amino acids, the levels of their corresponding disubstituted MAAs were determined after the reaction time was elongated to 30 min. […]
HPLC and LC-MS Analysis. Samples were analyzed on a Shimadzu Prominence UHPLC system (Kyoto, Japan) coupled with a PDA detector. […]

[2] = reported value used to calculate MG; cited from earlier work

Row | Compound | consumption level of MG in the MysD reaction relative to that with L-Thr [1] | extinction coefficient [2]
1 | C[C@H](N)C(=O)O [L-Ala] | 0.4% | 
2 | N[C@@H](CS)C(=O)O [L-Cys] | 0.9% | 
3 | N[C@@H](CO)C(=O)O [L-Ser] | about 12.7% | 
4 | C[C@@H](O)[C@H](N)C(=O)O [L-Thr] | 100% | 
5 | COC1=C(NCC(=O)O)C[C@@](O)(CO)CC1=O [MG, mycosporine-glycine] |  | 28,100 M^−1 cm^−1
